Measurements: patent US12391697B2, “Condensed bi-heterocycles as inhibiting agents for Bruton's tyrosine kinase” (BIOGEN MA INC., priority 2019, dated 2025)
Where a name gives a salt, the structure may show the parent alone.

Biological target: BTK (Homo sapiens (Human), UniProt Q06187)
Experiment: In Vitro BTK Kinase Assay: Btk-PolyGAT-LS Assay
Format: biochemical
Conditions: active BTK enzyme 0.25 nM, ATP 10 μM, polyGAT 100 nM, 30 minutes
Method: In Vitro BTK Kinase Assay: Btk-PolyGAT-LS Assay
The purpose of the BTK in vitro assay is to determine compound potency against BTK through the measurement of IC50. […] The BTK kinase reaction was done in a black 96 well plate (costar 3694). For a typical assay, a […] aliquot of a ATP/peptide master mix (final concentration; ATP 10 μM, polyGAT 100 nM) in kinase buffer (10 mM Tris-HCl pH 7.5, 10 mM MgCl2, 200 μM […], 5 mM DTT, 0.01% Triton X-100, and 0.2 mg/ml casein) is added to each well. Next, […] of a 4-fold, 40× compound titration in 100% DMSO solvent is added, followed by adding 15 uL of BTK enzyme mix in 1× kinase buffer (with a final concentration of 0.25 nM). The assay is incubated for 30 minutes before being stopped with […] of a 50 mM EDTA solution. Aliquots (5 uL) of the kinase reaction are transferred to a low volume white 384 well plate (Corning 3674), and […] of a 2× detection buffer (Invitrogen PV3574, with 4 nM Tb-PY20 antibody, Invitrogen PV3552) is added. The plate is covered and incubated for 45 minutes at room temperature. Time resolved fluorescence (TRF) on Molecular Devices M5 (332 nm excitation; 488 nm emission; 518 nm fluorescein emission) is measured.

Sequence of BTK (Q06187 whole entry): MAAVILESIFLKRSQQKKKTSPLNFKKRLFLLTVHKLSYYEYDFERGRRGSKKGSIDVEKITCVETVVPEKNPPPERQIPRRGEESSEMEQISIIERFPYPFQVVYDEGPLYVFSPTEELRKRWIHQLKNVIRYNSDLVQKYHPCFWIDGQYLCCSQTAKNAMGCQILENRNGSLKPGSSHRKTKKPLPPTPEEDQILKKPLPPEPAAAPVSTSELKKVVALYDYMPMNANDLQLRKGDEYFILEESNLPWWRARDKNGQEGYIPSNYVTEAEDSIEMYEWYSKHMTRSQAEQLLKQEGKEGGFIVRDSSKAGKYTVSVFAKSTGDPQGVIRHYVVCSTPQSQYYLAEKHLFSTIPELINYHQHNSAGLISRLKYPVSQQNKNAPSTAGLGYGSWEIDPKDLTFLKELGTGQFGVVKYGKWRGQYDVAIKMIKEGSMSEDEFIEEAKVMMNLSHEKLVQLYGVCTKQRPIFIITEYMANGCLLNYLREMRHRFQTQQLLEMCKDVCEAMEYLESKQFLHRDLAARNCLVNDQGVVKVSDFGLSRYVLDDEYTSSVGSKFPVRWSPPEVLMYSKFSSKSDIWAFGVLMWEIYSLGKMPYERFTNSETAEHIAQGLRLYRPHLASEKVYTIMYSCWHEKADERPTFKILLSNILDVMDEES

`COCc1cc2c(-c3ccc(CNC(=O)c4noc(C(C)(C)C)n4)c(C)c3)ncnn2c1` [Example 77, 5-(tert-butyl)-N-(4-(6-(methoxymethyl)pyrrolo[2,1-f][1,2,4]triazin-4-yl)-2-methylbenzyl)-1,2,4-oxadiazole-3-carboxamide hydrochloride] and `C#Cc1cc2c(-c3ccc(CNC(=O)c4noc(C(C)(C)C)n4)c(C)c3)ncnn2c1` [Example 76, 5-(tert-butyl)-N-(4-(6-ethynylpyrrolo[2,1-f][1,2,4]triazin-4-yl)-2-methylbenzyl)-1,2,4-oxadiazole-3-carboxamide trifluoroacetate] fall in the same range of IC50: 1 to 10 nM for the first, 1 to 10 nM for the second.

`Cc1cc(-c2ncnn3cc(N4CCO[C@@H](C)C4)cc23)ccc1CNC(=O)c1nc(C(C)(C)C)no1` (single isomer, unassigned) [Example 138] and `Cc1cc(-c2ncnn3cc(N4CCO[C@@H](C)C4)cc23)ccc1CNC(=O)c1noc(C(C)(C)C)n1` (single isomer, unassigned) [Example 29] cannot be ordered by IC50: at most 1 nM for the first, at most 1 nM for the second.

Going from `Cc1cc(-c2ncnn3cc(-c4cn[nH]c4)cc23)ccc1CNC(=O)c1noc(C(C)(C)C)n1` [Example 85] to `Cc1cc(-c2ncnn3cc(-c4cnsc4)cc23)ccc1CNC(=O)c1noc(C(C)(C)C)n1` [Example 172], the IC50 rises from at most 1 nM to over 10 nM. The first is the more potent here.

`Cc1cc(-c2ncnn3cc(C4=CCOCC4)cc23)ccc1CNC(=O)c1nnn(C(C)(C)C)n1` [Example 128] and `Cc1cc(-c2ncnn3cc(C4=CCOCC4)cc23)ccc1CNC(=O)c1ccn(C(C)(C)C)n1` (single isomer, unassigned) [Example 127] cannot be ordered by IC50: at most 1 nM for the first, at most 1 nM for the second.

`Cc1cc(-c2ncnn3cc(N4CCOCC4C)cc23)ccc1CNC(=O)c1noc(C(C)(C)C)n1` (centres unmarked) [Example 229] and `Cc1cc(-c2ncnn3cc(N4CCN(C)C[C@H]4C)cc23)ccc1CNC(=O)c1noc(C(C)(C)C)n1` [Example 70, (R)-5-(tert-butyl)-N-(4-(6-(2,4-dimethylpiperazin-1-yl)pyrrolo[2,1-f][1,2,4]triazin-4-yl)-2-methylbenzyl)-1,2,4-oxadiazole-3-carboxamide trifluoroacetate] fall in the same range of IC50: 1 to 10 nM for the first, 1 to 10 nM for the second.

`Cc1cc(-c2ncnn3cc(N4CCO[C@H](C)C4)cc23)ccc1CNC(=O)c1nnn(C(C)(C)C)n1` (single isomer, unassigned) [Example 139] and `Cc1cc(-c2ncnn3cc(N4CCN(C)C(C)C4)cc23)ccc1CNC(=O)c1nnn(C(C)(C)C)n1` (centres unmarked) [Example 98] cannot be ordered by IC50: at most 1 nM for the first, at most 1 nM for the second.

`Cc1cc(-c2ncnn3cc(C4=CCSCC4)cc23)ccc1CNC(=O)c1noc(C(C)(C)C)n1` [Example 101] and `Cc1cc(-c2ncnn3cc(-c4cn(C)nn4)cc23)ccc1CNC(=O)c1noc(C(C)(C)C)n1` [Example 106] cannot be ordered by IC50: at most 1 nM for the first, at most 1 nM for the second.

`CC(C)(C)c1nnc(C(=O)NCc2ccc(-c3ncnn4cc(N5CCOCC5)cc34)cc2C(F)F)o1` [Example 193] and `CC(C)(C)c1nc(C(=O)NCc2ccc(-c3ncnn4cc(N5CCOCC5)cc34)cc2C(F)F)no1` [Example 220] cannot be ordered by IC50: 1 to 10 nM for the first, at most 1 nM for the second.

First: Cc1cc(-c2ncnn3cccc23)ccc1CNC(=O)c1nc(C(C)(C)C)no1 [Example 152]
Second: Cc1cc(-c2ncnn3cccc23)ccc1CNC(=O)c1cn(C(C)(C)C)nn1 [Example 184]
The IC50 of the first is lower: 1 to 10 nM for the first, over 10 nM for the second. The first is the more potent here.

`Cc1cc(-c2ncnn3cc(N4CC[C@@H](F)C4)cc23)ccc1CNC(=O)c1noc(C(C)(C)C)n1` (single isomer, unassigned) [Example 142] and `Cc1cc(-c2ncnn3cc(N4CC[C@H](F)C4)cc23)ccc1CNC(=O)c1noc(C(C)(C)C)n1` (single isomer, unassigned) [Example 141] cannot be ordered by IC50: at most 1 nM for the first, at most 1 nM for the second.

Going from `Cc1cc(-c2ncnn3cccc23)ccc1CNC(=O)c1ccn(C(C)(C)C)n1` [Example 182] to `Cc1cc(-c2ncnn3cc(-c4cnn(C)c4)cc23)ccc1CNC(=O)c1cn(C(C)(C)C)nn1` [Example 166], the IC50 falls from over 10 nM to at most 1 nM.

First: Cc1cc(-c2ccnc3cc(N4CCOCC4)nn23)ccc1CNC(=O)c1noc(C(C)(C)C)n1 [Example 22, 5-(tert-butyl)-N-(2-methyl-4-(2-morpholinopyrazolo[1,5-a]pyrimidin-7-yl)benzyl)-1,2,4-oxadiazole-3-carboxamide]
Second: Cc1cc2nccc(-c3ccc(CNC(=O)c4noc(C(C)(C)C)n4)c(C)c3)n2n1 [Example 46]
The IC50 of the first is lower: 1 to 10 nM for the first, over 10 nM for the second. The first is the more potent here.

`CC(C)(C)n1cc(C(=O)NCc2ccc(-c3ncnn4cc(N5CCOCC5)cc34)c(F)c2Cl)nn1` [Example 157] and `Cc1c(CNC(=O)c2cn(C(C)(C)C)nn2)ccc(-c2ncnn3cc(N4CCOCC4)cc23)c1F` [Example 87] cannot be ordered by IC50: at most 1 nM for the first, at most 1 nM for the second.

`Cc1cc(-c2ncnn3cc(-c4ncccn4)cc23)ccc1CNC(=O)c1noc(C(C)(C)C)n1` [Example 68, 5-(tert-butyl)-N-(2-methyl-4-(6-(pyrimidin-2-yl)pyrrolo[2,1-f][1,2,4]triazin-4-yl)benzyl)-1,2,4-oxadiazole-3-carboxamide hydrochloride] and `Cc1cc(-c2ncnn3cc(-c4ccccn4)cc23)ccc1CNC(=O)c1noc(C(C)(C)C)n1` [Example 230] cannot be ordered by IC50: at most 1 nM for the first, at most 1 nM for the second.

`CC(C)(C)c1nnc(C(=O)NCc2ccc(-c3ncnn4cc(N5CCOCC5)cc34)c(F)c2Cl)o1` [Example 156] and `CC(C)(C)n1cc(C(=O)NCc2ccc(-c3ncnn4cc(N5CCOCC5)cc34)cc2Cl)nn1` [Example 162] cannot be ordered by IC50: at most 1 nM for the first, 1 to 10 nM for the second.

`Cc1cc(-c2ncnn3cc(N4C[C@@H](C)O[C@H](C)C4)cc23)ccc1CNC(=O)c1noc(C(C)(C)C)n1` (single isomer, unassigned) [Example 43] and `Cc1cc(-c2ncnn3cc(N4C[C@@H](F)[C@@H](F)C4)cc23)ccc1CNC(=O)c1noc(C(C)(C)C)n1` [Example 122] cannot be ordered by IC50: at most 1 nM for the first, at most 1 nM for the second.

`Cc1cc(-c2ncnn3cc(-c4cnn(C5COC5)c4)cc23)ccc1CNC(=O)c1noc(C(C)(C)C)n1` [Example 104] and `CCn1cc(-c2cc3c(-c4ccc(CNC(=O)c5noc(C(C)(C)C)n5)c(C)c4)ncnn3c2)cn1` [Example 236] cannot be ordered by IC50: at most 1 nM for the first, at most 1 nM for the second.

`C=CC(=O)n1cc(-c2cc3c(-c4ccc(CNC(=O)c5noc(C(C)(C)C)n5)c(C)c4)ncnn3c2)cn1` [Example 59, N-(4-(6-(1-acryloyl-1H-pyrazol-4-yl)pyrrolo[2,1-f][1,2,4]triazin-4-yl)-2-methylbenzyl)-5-(tert-butyl)-1,2,4-oxadiazole-3-carboxamide] and `Cc1cc(-c2ncnn3cc(-c4cncnc4)cc23)ccc1CNC(=O)c1noc(C(C)(C)C)n1` [Example 226] cannot be ordered by IC50: at most 1 nM for the first, at most 1 nM for the second.

First: Cc1cc(-c2ncnn3cc(C(=O)N4CCN(C)CC4)cc23)ccc1CNC(=O)c1noc(C(C)(C)C)n1 [Example 216]
Second: Cc1cc(-c2ncnn3cc(C(=O)N(C)C)cc23)ccc1CNC(=O)c1noc(C(C)(C)C)n1 [Example 67, 5-(tert-butyl)-N-(4-(6-(dimethylcarbamoyl)pyrrolo[2,1-f][1,2,4]triazin-4-yl)-2-methylbenzyl)-1,2,4-oxadiazole-3-carboxamide hydrochloride]
The IC50 of the first is higher: over 10 nM for the first, at most 1 nM for the second.

`Cn1cc(-c2cc3c(-c4ccc(CNC(=O)c5nnc(C(C)(C)C)o5)c(C(F)F)c4F)ncnn3c2)cn1` [Example 196] and `COc1c(CNC(=O)c2noc(C(C)(C)C)n2)ccc(-c2ncnn3cc(-c4cnn(C)c4)cc23)c1F` [Example 235] cannot be ordered by IC50: at most 1 nM for the first, at most 1 nM for the second.

`Cc1cc(-c2ncnn3cc(-c4cnn(C)c4)cc23)ccc1CNC(=O)c1cnn(C(C)(C)C)c1` [Example 167] and `Cn1cc(-c2cc3c(-c4ccc(CNC(=O)c5cn(C(C)(C)C)nn5)c(C(F)F)c4)ncnn3c2)cn1` [Example 64, 1-(tert-butyl)-N-(2-(difluoromethyl)-4-(6-(1-methyl-1H-pyrazol-4-yl)pyrrolo[2,1-f][1,2,4]triazin-4-yl)benzyl)-1H-1,2,3-triazole-4-carboxamide hydrochloride] cannot be ordered by IC50: at most 1 nM for the first, at most 1 nM for the second.

`Cc1cc(-c2ncnn3cc(N4CCN(C)CC4)cc23)ccc1CNC(=O)c1nc(C(C)(C)C)no1` [Example 69, 3-(tert-butyl)-N-(2-methyl-4-(6-(4-methylpiperazin-1-yl)pyrrolo[2,1-f][1,2,4]triazin-4-yl)benzyl)-1,2,4-oxadiazole-5-carboxamide] and `Cc1cc(-c2ncnn3cc(N4CCOC(C)(C)C4)cc23)ccc1CNC(=O)c1noc(C(C)(C)C)n1` [Example 78, 5-(tert-butyl)-N-(4-(6-(2,2-dimethylmorpholino)pyrrolo[2,1-f][1,2,4]triazin-4-yl)-2-methylbenzyl)-1,2,4-oxadiazole-3-carboxamide hydrochloride] cannot be ordered by IC50: at most 1 nM for the first, at most 1 nM for the second.

`Cc1c(CNC(=O)c2noc(C3(C)CC3)n2)ccc(-c2ncnn3cc(-c4cnn(C)c4)cc23)c1F` [Example 42, N-(3-fluoro-2-methyl-4-(6-(1-methyl-1H-pyrazol-4-yl)pyrrolo[2,1-f][1,2,4]triazin-4-yl)benzyl)-5-(1-methylcyclopropyl)-1,2,4-oxadiazole-3-carboxamide hydrochloride] and `Cc1cc(-c2cc3c(-c4ccc(CNC(=O)c5nc(C(C)(C)C)no5)c(C)c4)ncnn3c2)cnn1` [Example 171] cannot be ordered by IC50: at most 1 nM for the first, at most 1 nM for the second.

In the case of `CC(C)(C)c1nc(C(=O)NCc2ccc(-c3ncnn4cccc34)cc2C(F)(F)F)no1` [Example 179], the IC50 is reported as 1 to 10 nM.
